Legend:
BTK wild-type = biological target: T1, BTK wild-type (Homo sapiens, UniProt Q06187); experiment: Fluorescent labelling of wild-type BTK in HEK293 cells; assay type: cell-based; settings: 1 h
T1 construct: expressed in transfected cells; host or cells: HEK293 (methods list HEK293T)
Excerpt: (§1) The antibodies to β-actin (5125), poly(ADP-ribose) polymerase (PARP) (9532S), cleaved caspase-3 (9661S), BTK (8547), PLCγ2(55512), ERK1/2 (9107), phospho-PLCγ2 (Tyr1217) (3871), phospho-BTK (Tyr223) (87457), and ERK1/2 pT202/pY204 (4377) were purchased from Cell Signaling Technology. An Annexin V-PE Apoptosis Detection Kit (555763), and PE mouse anti-human CD69 (555531), PE mouse anti-human CD3 (555340), and PE mouse anti-human CD19 (561741) were purchased from BD Bioscience. Dynabeads® Human T-Activator CD3/CD28 (11161D) was purchased from Life Technology. Goat anti-human IgM F(ab)2 (2022) was purchased from SouthernBiotech. An HTRF® KinEASE™-TK Kit (62TK0PEC) was purchased from Cisbio. […]
(§2) Cells were treated as indicated before the addition of a fluorescent probe (FL-SY-1530). […] After scanning, the gels were detected with Western blot.
(§3) Figure 2 Irreversible targeting of BTK by SY-1530. […] (B) The content of the compounds was measured with LC-MS/MS after incubation with BTK for 4 h. […] (D) DOHH2 cells were treated with various concentrations of FL-SY-1530 for 1 h, after which cells were lysed and analyzed by SDS-PAGE with the indicated antibodies and fluorescent gel scanning with a Typhoon imaging system. […] (F) HEK293 cells expressing wild-type or C481A mutant BTK were treated with FL-SY-1530 or FL-ibrutinib for 1 h, and the cells were then lysed and analyzed. […]

BTK C481A mutant = biological target: T2, BTK C481A mutant (Homo sapiens, UniProt Q06187, C481A); experiment: Fluorescent labelling of BTK C481A mutant in HEK293 cells; assay type: cell-based; settings: 1 h
T2 construct: expressed in transfected cells; host or cells: HEK293 (methods list HEK293T)
T2 sequence (Q06187 whole entry C481A): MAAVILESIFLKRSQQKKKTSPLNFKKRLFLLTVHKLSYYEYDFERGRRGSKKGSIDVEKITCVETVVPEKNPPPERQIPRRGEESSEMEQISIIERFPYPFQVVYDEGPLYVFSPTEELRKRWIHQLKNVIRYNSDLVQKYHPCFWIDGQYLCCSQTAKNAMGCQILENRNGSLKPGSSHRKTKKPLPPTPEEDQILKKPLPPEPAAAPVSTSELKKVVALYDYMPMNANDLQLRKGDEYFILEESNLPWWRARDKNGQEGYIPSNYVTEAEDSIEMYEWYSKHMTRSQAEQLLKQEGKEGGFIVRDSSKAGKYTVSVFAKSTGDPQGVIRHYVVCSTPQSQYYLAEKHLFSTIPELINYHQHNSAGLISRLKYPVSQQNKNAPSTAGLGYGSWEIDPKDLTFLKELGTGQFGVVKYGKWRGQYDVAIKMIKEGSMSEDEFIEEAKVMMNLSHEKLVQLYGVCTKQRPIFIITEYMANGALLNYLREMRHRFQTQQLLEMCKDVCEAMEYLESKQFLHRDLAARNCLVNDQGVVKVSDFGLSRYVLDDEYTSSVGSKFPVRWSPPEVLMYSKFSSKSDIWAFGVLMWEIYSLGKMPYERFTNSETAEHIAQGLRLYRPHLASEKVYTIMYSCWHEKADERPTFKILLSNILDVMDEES
Excerpt: as §1, §2, §3

T cell = experiment: Cell viability assay (CellTiter-Blue), human T cells; assay type: cell-based; settings: T-cell, read-out: IC50 (nM), growth of T cell
Procedure: (§4) Cells were seeded on 96-well plates (9,000 cells/well), cultured at 37 °C in 5% CO2 overnight, and incubated with different concentrations of compounds for 3 or 7 days. Then the cells were stained with CellTiter-Blue® reagent (Promega) for 4 h at 37 °C. The fluorescence signals were detected with a FlexStation 3, and the IC50 values of each compound were determined with GraFit software (Version 6.0).
(§5) CD19^+ B (>80% purity) and CD3^+ T (>90% purity) cells were purified with human B cell enrichment cocktail and human T cell enrichment cocktail (Stem Cell Technology), respectively. Cells were seeded on 12-well plates and incubated with different concentrations of BTK inhibitors for 1 h. B cells were stimulated with 50 µg/mL anti-human IgM F(ab′)2, and T cells were stimulated with 50 µg/mL anti-CD3/CD28 beads overnight. In the washout groups, the cell medium containing the indicated inhibitors was replaced with fresh medium before stimulation. Then cells were then incubated with anti-human CD69 for 1 h and analyzed with a Guava flow cytometer.

human peripheral T cells = experiment: CD69 up-regulation in T cells after anti-CD3/CD28 stimulation; assay type: cell-based
Procedure: as §5
(§6) Figure 4 SY-1530 blocks B-cell receptor signaling and induces apoptosis. (A–D) Human B and T cells were purified and incubated with different concentrations of BTK inhibitors for 1 h. B cells were stimulated with 50 μg/mL anti-human IgM F(ab′)2, and T cells were stimulated with 50 μg/mL anti-CD3/CD28 beads overnight directly or after washout of BTK inhibitors before stimulation. The percentage of CD69 positive cells was analyzed by flow cytometry. Data are shown as the mean ± SEM (n = 3). Statistical analysis was performed with Student’s t-test (*P < 0.05, **P < 0.01, ***P < 0.001). (E) Pfeiffer cells and Romas cells were preincubated with different concentrations of compounds for 1 h, washed with PBS, and then stimulated with anti-IgM/anti-IgG (10 μg/mL) for 10 min. Cells were lysed and analyzed by Western blot with the indicated antibodies. (F) Pfeiffer cells were treated with various concentrations of SY-1530 for 24 h. The cells were stained with both PE-Annexin and 7-AAD and analyzed by flow cytometry. Data are shown as the mean ± SEM (n = 3). Statistical analysis was performed with Student’s t-test (*P < 0.05, **P < 0.01). (G) Pfeiffer cells were incubated with BTK inhibitors in the presence of z-VAD-fmk (caspase inhibitor) or DMSO for 24 h. Cells were lysed and analyzed with specific antibodies.

human peripheral B cells = experiment: CD69 up-regulation in B cells after anti-IgM stimulation; assay type: cell-based
Procedure: as §5, §6

TMD8 xenografts = experiment: TMD8 tumor xenograft in SCID mice; assay type: in vivo
Procedure: TMD8 cells (1.0 × 10^7 cells in 100 µL of serum-free medium containing 40% Matrigel) were injected subcutaneously into SCID mice (6–8 weeks of age), and the tumor volume was monitored twice per week. […] The compounds were formulated in 0.5% methylcellulose containing 0.1% sodium lauryl sulfate. Tumor size and body weight were measured twice per week. All experiments were approved by the institutional animal care and use committee of Shouyao Holdings and were performed in accordance with the guidelines in the U.S. National Institutes of Health Guide for the Care and Use of Laboratory Animals (Approval No. CTA-2015063).
Figure 5 SY-1530 inhibits B-cell malignancy in vivo. (A–D) TMD8 cells were injected subcutaneously into SCID mice (6–8 weeks of age; 8 mice per group). […] Tumor size (A) and body weight (B) were measured […]. On the last day, mice were sacrificed 2.5 h after administration. LC-MS/MS was performed to measure the concentration of SY-1530 in plasma (C), and tumor samples were collected and analyzed with Western blot (D). QD represents administration once daily. Data are shown as mean ± SEM. Statistical analysis was performed with two-way analysis of variance (*P < 0.05; **P < 0.01; ***P < 0.001). […] Tumor size (E), body weight (F), SY-1530 concentration in the plasma (G), and protein expression in tumors (H) were measured. Data are shown as mean ± SEM. Statistical analysis was performed with two-way analysis of variance (*P < 0.05; **P < 0.01; ***P < 0.001).

Pfeiffer = experiment: Cell viability assay (CellTiter-Blue), Pfeiffer; assay type: cell-based, human; settings: Homo sapiens; Pfeiffer cells; read-out: IC50 (nM), growth of Pfeiffer
Procedure: as §4

TMD8 = experiment: Cell viability assay (CellTiter-Blue), TMD8; assay type: cell-based, human; settings: Homo sapiens, TMD8, read-out: IC50 (nM), growth of TMD8
Procedure: as §4

B cell = experiment: Cell viability assay (CellTiter-Blue), human B cells; assay type: cell-based; settings: B-cell, read-out: IC50 (nM), growth of B cell
Procedure: as §4, §5

T1 sequence (Q06187 whole entry): as the sequence (Q06187 whole entry C481A) above, with A481C counted along it

Binding of labelled compound to wild-type BTK (BTK wild-type)	Binding of labelled compound to BTK C481A mutant (BTK C481A mutant)	Structure (SMILES)	IC50 (T cell) [nM]	Up-regulation of CD69 in T cells (human peripheral T cells; after washout of BTK inhibitors)	CD69 up-regulation after T cell receptor stimulation (human peripheral T cells; continuous exposure, 10 µM)	Up-regulation of CD69 in B cells after anti-IgM (human peripheral B cells; continuous exposure, 10 nM)	Up-regulation of CD69 in B cells after anti-IgM (human peripheral B cells; inhibitors washed out before BCR stimulation)	Mouse bodyweight (TMD8 xenografts; BID groups)	Tumor growth versus vehicle treated group (TMD8 xenografts; BID, SY-1530 30 or 10 mg/kg, ibrutinib 30 mg/kg)	IC50 (Pfeiffer) [nM]	IC50 (TMD8) [nM]	IC50 (B cell) [nM]
bound the wild-type BTK	not the C481A mutant	CC1=CC(C)=[N+]2C1=Cc1ccc(CCC(=O)NCCN3CCN(CC=CC(=O)N4CCC(n5nc(-c6ccc(Oc7ccccc7)cc6)c(C(N)=O)c5N)C4)CC3)n1[B-]2(F)F (centres unmarked) [FL-SY-1530]	–	–	–	–	–	–	–	–	–	–
bound the wild-type BTK	not the C481A mutant	CC1=CC(C)=[N+]2C1=Cc1ccc(CCC(=O)NCCN3CCN(CC=CC(=O)N4CCCC(n5nc(-c6ccc(Oc7ccccc7)cc6)c6c(N)ncnc65)C4)CC3)n1[B-]2(F)F (centres unmarked) [FL-ibrutinib, reference compound]	–	–	–	–	–	–	–	–	–	–
–	–	C=CC(=O)N1CCC[C@@H](n2nc(-c3ccc(Oc4ccccc4)cc3)c3c(N)ncnc32)C1 [ibrutinib, reference compound]	1000 to 10000	not affected	significantly abrogated	completely abolished	blocked	moderate decrease	dramatically lower	45.9	17.3	0.85
